From patent publication US20020123456A1, “Methods of identifying agents affecting atrophy and hypertrophy” (priority 2001, published 2002) come the findings set out here.

The test system of one data set is PI(3)K/Akt/mTOR pathway. Kind of data set: PI(3)K/Akt/mTOR and ERK signalling in C2C12 differentiated myotubes (immunoblot, kinase assay). Type of data set: cell-based. As to conditions: for phosphorylation of downstream targets of the PI(3)K/Akt/mTOR pathway (Akt, p70S6K, GSK3, PHAS-1/4E-BP1): IGF-1 10 ng ml-1 or Ca-I 1.0 μM, 15 min. An excerpt:
(§1) As a first step towards examining the roles of the calcineurin/NFAT and PI(3)K/Akt pathways during IGF-induced myotube hypertrophy, we added IGF-1 to differentiated myotubes and determined whether these pathways were activated. Calcineurin is a protein phosphatase that is activated by increases in intracellular calcium levels, which in turn dephosphorylates the NFAT transcription factors; this dephosphorylation results in the translocation of NFATs to the nucleus and subsequent gene transcription. NFAT dephosphorylation and nuclear translocation are therefore markers of calcineurin activation (FIG. 7, right). For markers of activation of the PI(3)K/Akt pathway, the phosphorylation of Akt itself or of downstream targets such as p70S6 kinase (p70S6K), PHAS-1/4E-BP1 or GSK3 were used (FIG. 7).
(§2) Protein analysis of total cell lysates was conducted as described8. The antibodies used were anti-phospho-Erk1/2 (Thr 202/Tyr 204; NEB); anti-phospho-Akt (Ser 473; NEB); anti-phospho- GSK3 (Ser 9/21; NEB); anti-phospho-p70S6K (Thr 389; NEB); anti-phospho-PHAS-1/4E-BP1 (Thr 65; NEB); anti-Erk1/2 (UBI), anti-Akt (NEB), anti-p70S6K (C-18; Santa Cruz), anti-PHAS-1/4EBP1 (Zymed) and anti-NFAT-C1 (7A6; Santa Cruz).
(§3) Immunoprecipitations and immunoblotting were performed as described. Proteins were detected with the chemiluminescence detection system Renaissance; NEN). To measure the enzymatic activity of p70S6K an immunocomplex kinase assay was performed as described (Azpiazu, I., Saltiel, A. R., DePaoli-Roach, A. A. & Lawrence, J. C. J. Biol. Chem. 271, 5033-5039 (1996)).
In general terms: Immunoblotting shows a protein as a band on a membrane.

A further data set relates to C2C12 myotubes. Kind of data set: C2C12 myotube hypertrophy (myotube diameter). Type of data set: cell-based. As to conditions: LY294002 10 μM; for IGF-1-induced myotube hypertrophy: D2 myotubes, IGF-1 10 ng ml-1 plus CsA 5 μM, rapamycin 2 ng ml-1, PD98059 or Ara-C 10 μM; for myotube size / hypertrophy, agent alone: D2 myotubes treated at day 2 after fusion, analysed day 4, IGF-1 10 ng ml-1, CsA 5 μM, Ca-I 1 μM. The procedure:
FIG. 9. […] Myotubes were treated at day 2 after fusion with the PI(3)K inhibitor LY294002 (LY; 10 μM), the mTOR inhibitor rapamycin (RAP, 2 ng ml-1), IGF-1 (10 ng ml-1) and with a combination of IGF-1 and each inhibitor, and analyzed for morphological effects at day 4. […] C2C12 myotubes were treated at day 2 after induction of differentiation with IGF-1 (10 ng ml-1) or a combination of Ara-C (10 μM) and IGF-1 (10 ng ml-1), and analysed the next day. Untreated myotubes are shown (CON). […] Quantification of myotube diameters is shown. The average number of nuclei per myotube is presented for each condition in the bottom row.
To distinguish between effects on myoblast differentiation and those on the trophic state of existing myofibres, we exploited the C2C12 myoblast differentiation system. C2C12 myoblasts proliferate until they reach confluence; then, in serum-poor medium, the myoblasts fuse into multi-nucleated myotubes. Differentiated myotubes are predominant by 2 days after fusion (D2 myotubes) and survive for another 3 days. […] IGF-1-induced myotube hypertrophy, as measured by an increase in diameter and an increase in total protein, is normally accompanied by an increase in nuclei within the myofibres.
To obtain more direct evidence, we next used the pharmacological inhibitors of the calcineurin and PI(3)K/Akt pathways in assays of IGF-1-induced myotube hypertrophy. Further, we introduced gene-expression vectors into the myotubes that induced the expression of either activators or dominant-negative blockers of these pathways.
C2C12 myoblasts were cultured and transfected as described (Glass, D. J. et al. Cold Spring Harb. Symp. Quant. Biol. 57, 53-62 (1992)). Flow cytometry and cell sorting were performed on a Cytomation MoFlo (Fort Collins, Colorado) high-speed cell sorter (FACS) (Rommel, C. et al. Science 286, 1738-1741 (1999)). Myoblasts were fused into myotubes at confluence, by shifting the medium to DMEM+2% horse serum. Myotube diameter was quantified as follows: 10 fields were chosen randomly, and approximately 10 myotubes were measured per field. The average diameter per myotube was calculated as the mean of ten measurements taken along the length of the myotube. For the constitutively active Akt, kinaseinactive Akt, wild-type Akt, wild-type SHIP2, dominant-negative SHIP2, constitutively active p70S6K and dominant-negative GSK3β constructs, transfected myotubes were determined by the co-expression of enhanced green fluorescent protein (EGFP; see below for construct details); thus, only transfected myotubes were assessed for hypertrophy. For the tetracycline-inducible calcineurin, myotubes expressing calcineurin were identified by EGFP expression, and comparisons were made between EGFP-positive and EGFP-negative myotubes. […]

A further data set concerns calcineurin/NFAT-C1. Kind of data set: NFAT-C1 phosphorylation and translocation in C2C12 differentiated myotubes (immunoblot). Type of data set: cell-based. The settings on record: for NFAT-C1 phosphorylation state and nuclear translocation: IGF-1 10 ng ml-1 or Ca-I 1.0 μM, 15 min.
Description: as §1, §2, §3

In a further data set the test system is rat plantaris muscle. Kind of data set: Compensatory hypertrophy of the plantaris after surgical overload. Type of data set: in vivo. The procedure: Female Sprague-Dawley rats (250-275 g) were anaesthetized with ketamine/xylazine (50/10 mg kg-1, intraperitoneally); with the use of aseptic surgical techniques the soleus, medial gastrocnemius and lateral gastrocnemius muscles were removed bilaterally, producing a functional overload on the plantaris muscles. In some instances, plasmid DNA (100 μl) was injected into the muscle immediately after the procedure. The hindlimbs of adult female SD rats (225-250 g) were unloaded by suspending their tails with a tail-traction bandage as described29. At the appropriate times, rats were killed and hindlimb muscles were removed, weighed and frozen in isopentane cooled with liquid nitrogen. Weight-matched surgically untreated rats served as controls.
Transfection in vivo. Constructs used encoded the following: (1) myristoylated, c.a. […]
Muscle fibre size was obtained from digitally imaged serial cross-sections of cryostat-sectioned muscle. Individual muscle fibres were outlined and cross-sectional area was determined with a computerassisted image analysis system (MetaMorph™; Universal Imaging Corporation). All data are expressed as means ±s.e.m. […]

Data set [1] is described as follows: Rapamycin given to control (surgically untreated) adult animals. The settings on record: rapamycin for 14 days, data not shown. Type of data set: in vivo, rat. The source says:
The above findings indicate that the Akt pathway and its downstream targets are activated during muscle hypertrophy in vivo. To begin to determine the role of these activations, we used treatment in vivo with rapamycin, a quite specific inhibitor of one important Akt target, mTOR. Rapamycin, a selective blocker of mTOR, blocked hypertrophy in all models without causing atrophy in control muscles Rapamycin binds to its intracellular receptor, forming a complex that then binds to and inhibits mTOR activity (Schmeizie, T. & Hall, M. N. Cell 103, 253-262 (2000).). […] Treatment with rapamycin produced no non-specific effects; that is, there was no effect on body weight or the baseline weight of non-overloaded hindlimb muscles in these animals. Further, rapamycin given to control (surgically untreated) adult animals for 14 days had no effect on body weight or muscle weight (data not shown). In addition to the above results from rats, similar results were obtained when this hypertrophy model was performed in mice (data not shown).

“Also recorded” adds a separate entry of the source.

On to `COc1cccc(-c2cc(=O)c3ccccc3o2)c1N` [PD98059], for which the “IGF-1-induced Akt / PI(3)K/Akt pathway activation” value in the data set with PI(3)K/Akt/mTOR pathway (IGF-1 10 ng ml-1 15 min, CsA 5 μM, LY294002 10 μM, rapamycin 2 ng ml-1, PD98059) is given as “without affecting steps in the PI(3)K/Akt/mTOR pathway”. The “IGF-1-induced ERK activation” value with PI(3)K/Akt/mTOR pathway (IGF-1 10 ng ml-1 15 min, LY294002 10 μM, PD98059 10 μM) was “did indeed block ERK activation”. For the same compound, the IGF-1-induced myotube hypertrophy entry in the data set on C2C12 myotubes is “did not block phenotypic hypertrophy”.
Consider `CNc1ccc2oc(C[C@H]3O[C@@]4(CC[C@H]3C)O[C@H]([C@H](C)C(=O)c3ccc[nH]3)[C@H](C)C[C@H]4C)nc2c1C(=O)O` [calcium ionophore, A23187], for which, in the data set on calcineurin/NFAT-C1, the “NFAT-C1 phosphorylation state and nuclear translocation” value is on record as “dephosphorylation-induced downshift in NFAT”. For the same compound, the results for the “phosphorylation of downstream targets of the PI(3)K/Akt/mTOR pathway (Akt, p70S6K, GSK3, PHAS-1/4E-BP1)” value in the data set with PI(3)K/Akt/mTOR pathway and with PI(3)K/Akt/mTOR pathway (listed as Ca-I) were “none could be induced” and “had no effect on these kinases”, respectively. For the same compound, in the data set with C2C12 myotubes, the “myotube size / hypertrophy, agent alone” value was “thinner myotubes”.
Consider `CO[C@H]1C[C@@H]2CC[C@@H](C)[C@@](O)(O2)C(=O)C(=O)N2CCCC[C@H]2C(=O)O[C@H]([C@H](C)C[C@@H]2CC[C@@H](O)[C@H](OC)C2)CC(=O)[C@H](C)/C=C(\C)[C@@H](O)[C@@H](OC)C(=O)[C@H](C)C[C@H](C)/C=C/C=C/C=C/1C` [rapamycin], for which, in the data set on rat plantaris muscle (adaptive hypertrophy in adult animals, rapamycin), the blockage of hypertrophy is 95%. Besides, the “body weight or baseline weight of non-overloaded hindlimb muscles” value in the data set with rat plantaris muscle (overloaded rats treated with rapamycin 1.5 mg kg-1 i.p. daily) is “no effect”. Further, in data set [1], the “body weight or muscle weight” value is listed as “had no effect”.
As to IGF-1, the “calcium-ionophore-induced dephosphorylation and translocation of NFAT-C1” value in the data set on calcineurin/NFAT-C1 (Ca-I 1.0 μM, CsA 5 μM before stimulation or IGF-1 10 ng ml-1 simultaneously) was “blunted”. Also, the “NFAT-C1 phosphorylation state and nuclear translocation” value in the data set on calcineurin/NFAT-C1 is “hyperphosphorylation of NFAT”. Moreover, in the data set with PI(3)K/Akt/mTOR pathway, the “phosphorylation of downstream targets of the PI(3)K/Akt/mTOR pathway (Akt, p70S6K, GSK3, PHAS-1/4E-BP1)” value is on record as “induced the phosphorylation”. For the same compound, the “myotube size / hypertrophy, agent alone” value in the data set with C2C12 myotubes is “resulting in hypertrophy”.
As for cytosine-β-D-arabinofuranoside [Ara-C], the IGF-1-induced myotube hypertrophy entry in the data set on C2C12 myotubes was “myotube diameter and total protein still increase; also recorded: does not inhibit IGF-1-mediated hypertrophy”.
